What was measured:
Assay type in all cases: biochemical
HDAC6 enzyme = target: T1, HDAC6 enzyme (Homo sapiens, UniProt Q9UBN7); assay: HDAC1/6 Enzyme Inhibitory Assay (HDAC-Glo I/II Assay kit), HDAC6; details: 1 μM test compound; wells without enzyme = 100% inhibition; read-out: HDAC6 inhibitory rate (%) (1 μM)
T1 construct: transducing full length HDAC1 and HDAC6 genes into Sf-9 insect cells; GST; purchased SignalChem; host or cells: Sf-9 insect cells
T1 sequence (Q9UBN7 1-1215): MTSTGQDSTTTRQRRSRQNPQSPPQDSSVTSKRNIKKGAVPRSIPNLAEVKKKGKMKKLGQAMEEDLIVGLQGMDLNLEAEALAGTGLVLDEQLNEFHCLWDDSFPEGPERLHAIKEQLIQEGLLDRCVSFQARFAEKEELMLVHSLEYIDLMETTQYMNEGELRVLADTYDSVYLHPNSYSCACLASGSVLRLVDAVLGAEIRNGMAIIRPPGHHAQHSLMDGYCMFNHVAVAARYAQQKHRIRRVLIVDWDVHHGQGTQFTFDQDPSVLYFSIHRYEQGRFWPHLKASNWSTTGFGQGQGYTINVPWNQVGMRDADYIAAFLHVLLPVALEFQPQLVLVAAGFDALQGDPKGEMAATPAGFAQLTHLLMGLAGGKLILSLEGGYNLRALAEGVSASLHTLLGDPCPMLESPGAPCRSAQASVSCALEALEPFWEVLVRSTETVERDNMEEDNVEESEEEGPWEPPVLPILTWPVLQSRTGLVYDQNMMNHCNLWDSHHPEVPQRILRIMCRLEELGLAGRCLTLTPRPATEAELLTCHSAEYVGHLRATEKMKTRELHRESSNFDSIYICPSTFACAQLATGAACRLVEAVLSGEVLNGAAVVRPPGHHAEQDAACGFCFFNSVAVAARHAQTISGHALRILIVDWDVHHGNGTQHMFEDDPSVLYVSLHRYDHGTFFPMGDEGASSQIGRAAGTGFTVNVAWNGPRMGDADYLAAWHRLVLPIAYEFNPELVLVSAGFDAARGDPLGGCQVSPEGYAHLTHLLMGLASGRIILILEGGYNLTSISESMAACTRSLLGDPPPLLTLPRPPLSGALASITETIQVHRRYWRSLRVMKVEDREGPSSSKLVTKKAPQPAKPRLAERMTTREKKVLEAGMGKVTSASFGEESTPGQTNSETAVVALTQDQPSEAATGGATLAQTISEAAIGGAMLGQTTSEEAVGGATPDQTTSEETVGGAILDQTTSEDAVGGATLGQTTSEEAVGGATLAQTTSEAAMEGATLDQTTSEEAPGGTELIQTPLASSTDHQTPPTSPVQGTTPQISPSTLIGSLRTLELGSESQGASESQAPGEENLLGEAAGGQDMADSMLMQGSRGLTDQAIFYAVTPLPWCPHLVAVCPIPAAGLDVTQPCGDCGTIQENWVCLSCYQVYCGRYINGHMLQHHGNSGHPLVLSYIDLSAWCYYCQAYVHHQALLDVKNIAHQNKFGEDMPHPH
In short: (§1)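 Inhibitory activity derives from HDAC-Glo luminescence, expressed relative to wells lacking enzyme (100% inhibition). Compounds meet full-length GST-purified HDAC1 or HDAC6 for 60 min at room temperature before a 20 min substrate-developer reaction.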

HDAC9 enzyme = target: T2, HDAC9 enzyme (Homo sapiens, UniProt Q9UKV0); assay: HDAC9 Enzyme Inhibitory Assay (HDAC-Glo class IIa); details: 1 μM test compound; wells without enzyme = 100% inhibition; read-out: HDAC9 inhibitory rate (%) (1 μM)
T2 construct: transducing full length HDAC9 gene into Sf-9 insect cells; made in house; host or cells: Sf-9 insect cells
In short: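 Luminescent HDAC-Glo class IIa readout after a 20 min room-temperature reaction; relative inhibition referenced to enzyme-free wells as 100%. Test compound first preincubated 60 min with Sf-9-expressed, Ni-NTA-purified full-length HDAC9 in pH 7.5 Tris buffer containing 135 mM NaCl, 0.6 mM glutathione and 0.01% Tween-20.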

HDAC1 enzyme = target: T3, HDAC1 enzyme (Homo sapiens, UniProt Q13547); assay: HDAC1/6 Enzyme Inhibitory Assay (HDAC-Glo I/II Assay kit), HDAC1; details: 1 μM test compound, wells without enzyme = 100% inhibition; for inhibition at 1 µM: read-out: HDAC1 inhibitory rate (%) (1 μM)
T3 construct: transducing full length HDAC1 and HDAC6 genes into Sf-9 insect cells; GST; purchased SignalChem; host or cells: Sf-9 insect cells
In short: as §1

T2 sequence (Q9UKV0 whole entry, species assumed): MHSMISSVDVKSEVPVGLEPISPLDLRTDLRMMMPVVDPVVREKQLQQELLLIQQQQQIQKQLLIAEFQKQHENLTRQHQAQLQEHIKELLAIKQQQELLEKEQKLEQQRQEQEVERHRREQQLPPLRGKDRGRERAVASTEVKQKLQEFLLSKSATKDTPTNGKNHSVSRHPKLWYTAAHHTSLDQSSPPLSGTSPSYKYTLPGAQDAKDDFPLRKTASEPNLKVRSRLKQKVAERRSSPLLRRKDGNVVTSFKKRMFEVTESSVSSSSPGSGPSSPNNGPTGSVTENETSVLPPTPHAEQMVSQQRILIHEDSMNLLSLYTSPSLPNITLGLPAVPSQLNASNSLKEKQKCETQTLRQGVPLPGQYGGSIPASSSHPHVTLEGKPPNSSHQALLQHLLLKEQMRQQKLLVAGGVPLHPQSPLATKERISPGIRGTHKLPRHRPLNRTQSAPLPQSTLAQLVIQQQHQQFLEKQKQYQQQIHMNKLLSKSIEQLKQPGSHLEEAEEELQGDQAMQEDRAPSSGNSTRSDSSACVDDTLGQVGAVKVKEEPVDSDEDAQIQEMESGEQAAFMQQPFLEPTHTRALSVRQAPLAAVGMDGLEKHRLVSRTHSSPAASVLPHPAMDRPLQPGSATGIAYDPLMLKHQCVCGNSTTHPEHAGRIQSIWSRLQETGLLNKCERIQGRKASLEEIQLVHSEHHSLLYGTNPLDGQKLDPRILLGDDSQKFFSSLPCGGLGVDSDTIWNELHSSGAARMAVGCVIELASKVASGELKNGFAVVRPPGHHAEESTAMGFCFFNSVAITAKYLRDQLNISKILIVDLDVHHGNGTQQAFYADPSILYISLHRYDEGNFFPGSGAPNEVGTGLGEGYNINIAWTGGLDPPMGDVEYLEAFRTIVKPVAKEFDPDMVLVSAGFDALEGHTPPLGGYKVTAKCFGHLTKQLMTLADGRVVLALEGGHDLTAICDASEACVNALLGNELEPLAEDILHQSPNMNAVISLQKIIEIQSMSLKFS
T3 sequence (Q13547 whole entry): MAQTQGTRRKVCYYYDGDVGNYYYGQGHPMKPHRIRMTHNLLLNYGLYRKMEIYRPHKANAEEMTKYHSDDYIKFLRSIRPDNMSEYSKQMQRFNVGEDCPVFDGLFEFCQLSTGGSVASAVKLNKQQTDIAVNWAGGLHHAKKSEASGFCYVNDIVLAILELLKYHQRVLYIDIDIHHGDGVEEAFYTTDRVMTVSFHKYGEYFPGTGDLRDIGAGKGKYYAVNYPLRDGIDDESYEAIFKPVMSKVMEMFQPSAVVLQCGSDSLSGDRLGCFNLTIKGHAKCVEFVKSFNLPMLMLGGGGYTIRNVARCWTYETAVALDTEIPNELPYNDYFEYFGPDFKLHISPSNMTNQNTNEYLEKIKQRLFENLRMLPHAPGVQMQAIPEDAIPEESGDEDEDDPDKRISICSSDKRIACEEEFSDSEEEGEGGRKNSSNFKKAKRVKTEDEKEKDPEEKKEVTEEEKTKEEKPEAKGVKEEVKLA

An inhibition at 1 µM (HDAC6 enzyme) of 99%, an inhibition at 1 µM (HDAC9 enzyme) of 52% and an inhibition at 1 µM (HDAC1 enzyme) of 5% were found for `O=C(N[C@@H]1CCCC[C@H]1N1Cc2ccc(-c3noc(C(F)(F)F)n3)cc2C1=O)C1CC1` [Example 32, N-((1R,2R)-2-(1-oxo-6-(5-(trifluoromethyl)-1,2,4-oxadiazol-3-yl)-1,3-dihydro-2H-isoindol-2-yl)cyclohexyl)cyclopropanecarboxamide] in this work.
An inhibition at 1 µM (HDAC6 enzyme) of 99%, an inhibition at 1 µM (HDAC9 enzyme) of 55% and an inhibition at 1 µM (HDAC1 enzyme) of 11% were found for `O=C(N[C@@H]1CCCC[C@H]1N1Cc2ccc(-c3noc(C(F)(F)F)n3)cc2C1=O)C1CC(F)(F)C1` [Example 125, 3,3-difluoro-N-((1R,2R)-2-(1-oxo-6-(5-(trifluoromethyl)-1,2,4-oxadiazol-3-yl)-1,3-dihydro-2H-isoindol-2-yl)cyclohexyl) cyclobutanecarboxamide] in this work.
An inhibition at 1 µM (HDAC6 enzyme) of 71%, an inhibition at 1 µM (HDAC9 enzyme) of 19% and an inhibition at 1 µM (HDAC1 enzyme) of -2% were found for `O=C1NCC(C(=O)N[C@@H]2CCCC[C@H]2N2Cc3ccc(-c4noc(C(F)(F)F)n4)cc3C2=O)N1` (stereo partly drawn) [Example 109, 2-oxo-N-((1R,2R)-2-(1-oxo-6-(5-(trifluoromethyl)-1,2,4-oxadiazol-3-yl)-1,3-dihydro-2H-isoindol-2-yl)cyclohexyl)imidazolidine-4-carboxamide] in this work.
An inhibition at 1 µM (HDAC6 enzyme) of 98%, an inhibition at 1 µM (HDAC9 enzyme) of 25% and an inhibition at 1 µM (HDAC1 enzyme) of 5% were found for `O=C(N[C@@H]1CCCC[C@H]1N1Cc2ccc(-c3noc(C(F)(F)F)n3)cc2C1=O)N1CCOCC1` [Example 139, N-((1R,2R)-2-(1-oxo-6-(5-(trifluoromethyl)-1,2,4-oxadiazol-3-yl)-1,3-dihydro-2H-isoindol-2-yl)cyclohexyl)morpholine-4-carboxamide] in this work.
An inhibition at 1 µM (HDAC6 enzyme) of 98%, an inhibition at 1 µM (HDAC9 enzyme) of 40% and an inhibition at 1 µM (HDAC1 enzyme) of 10% were found for `O=C(N[C@@H]1CCCC[C@H]1N1Cc2ccc(-c3noc(C(F)(F)F)n3)cc2C1=O)N1CCC(F)(F)C1` [Example 169, 3,3-difluoro-N-((1R,2R)-2-(1-oxo-6-(5-(trifluoromethyl)-1,2,4-oxadiazol-3-yl)-1,3-dihydro-2H-isoindol-2-yl)cyclohexyl)pyrrolidine-1-carboxamide] in this work.
An inhibition at 1 µM (HDAC6 enzyme) of 93%, an inhibition at 1 µM (HDAC9 enzyme) of 80% and an inhibition at 1 µM (HDAC1 enzyme) of 8% were found for `CC(=O)N1CC[C@H](N2Cc3ccc(-c4noc(C(F)(F)F)n4)cc3C2=O)[C@H](c2ccccc2)C1` [Example 21, 2-((3R,4S)-1-acetyl-3-phenylpiperidin-4-yl)-6-(5-(trifluoromethyl)-1,2,4-oxadiazol-3-yl)isoindolin-1-one] in this work.
An inhibition at 1 µM (HDAC6 enzyme) of 98%, an inhibition at 1 µM (HDAC9 enzyme) of 56% and an inhibition at 1 µM (HDAC1 enzyme) of 7% were found for `O=C1CCCN1c1ccccc1N1Cc2ccc(-c3noc(C(F)(F)F)n3)cc2C1=O` [Example 184, 2-(2-(2-oxopyrrolidin-1-yl)phenyl)-6-(5-(trifluoromethyl)-1,2,4-oxadiazol-3-yl)isoindolin-1-one] in this work.
An inhibition at 1 µM (HDAC6 enzyme) of 94%, an inhibition at 1 µM (HDAC9 enzyme) of 99% and an inhibition at 1 µM (HDAC1 enzyme) of 93% were found for `Cc1cc([C@@H]2CNCC[C@H]2N2Cc3ccc(-c4noc(C(F)(F)F)n4)cc3C2=O)ccc1Cl` (relative stereo) [Example 57, 2-(trans-3-(4-chloro-3-methylphenyl)piperidin-4-yl)-6-(5-(trifluoromethyl)-1,2,4-oxadiazol-3-yl)isoindolin-1-one] in this work.
An inhibition at 1 µM (HDAC6 enzyme) of 82%, an inhibition at 1 µM (HDAC9 enzyme) of 53% and an inhibition at 1 µM (HDAC1 enzyme) of 21% were found for `O=C(N[C@H]1CCCC[C@@H]1N1Cc2ccc(-c3noc(C(F)(F)F)n3)cc2C1=O)[C@@H]1CCCO1` [Example 217, (2S)-N-((1S,2S)-2-(1-oxo-6-(5-(trifluoromethyl)-1,2,4-oxadiazol-3-yl)-1,3-dihydro-2H-isoindol-2-yl)cyclohexyl)tetrahydrofuran-2-carboxamide] in this work.
An inhibition at 1 µM (HDAC6 enzyme) of 98%, an inhibition at 1 µM (HDAC9 enzyme) of 97% and an inhibition at 1 µM (HDAC1 enzyme) of 79% were found for `CC(C)(C)OC(=O)N1CC[C@@H](N2Cc3ncc(-c4noc(C(F)(F)F)n4)cc3C2=O)[C@H](c2ccccc2)C1` [Example 88, tert-butyl (3R,4R)-4-(5-oxo-3-(5-(trifluoromethyl)-1,2,4-oxadiazol-3-yl)-5,7-dihydro-6H-pyrrolo[3,4-b]pyridin-6-yl)-3-phenylpiperidine-1-carboxylate] in this work.
An inhibition at 1 µM (HDAC6 enzyme) of 99%, an inhibition at 1 µM (HDAC9 enzyme) of 93% and an inhibition at 1 µM (HDAC1 enzyme) of 41% were found for `O=C1C[C@](Cc2ccccc2)(N2Cc3ccc(-c4noc(C(F)(F)F)n4)cc3C2=O)CN1` [Example 61, 2-((3S)-3-benzyl-5-oxopyrrolidin-3-yl)-6-(5-(trifluoromethyl)-1,2,4-oxadiazol-3-yl)isoindolin-1-one] in this work.
An inhibition at 1 µM (HDAC6 enzyme) of 95%, an inhibition at 1 µM (HDAC9 enzyme) of 66% and an inhibition at 1 µM (HDAC1 enzyme) of 26% were found for `CC(C)(C)OC(=O)N[C@@H]1CCCC[C@@H]1N1Cc2ccc(-c3noc(C(F)(F)F)n3)cc2C1=O` (relative stereo) [Example 198, tert-butyl (cis-2-(1-oxo-6-(5-(trifluoromethyl)-1,2,4-oxadiazol-3-yl)-1,3-dihydro-2H-isoindol-2-yl)cyclohexyl)carbamate] in this work.
An inhibition at 1 µM (HDAC6 enzyme) of 100%, an inhibition at 1 µM (HDAC9 enzyme) of 69% and an inhibition at 1 µM (HDAC1 enzyme) of 8% were found for `CC(CO)(CCl)C(=O)N[C@@H]1CCCC[C@H]1N1Cc2ccc(-c3noc(C(F)(F)F)n3)cc2C1=O` (relative stereo) [Example 203, 3-chloro-2-(hydroxymethyl)-2-methyl-N-(trans-2-(1-oxo-6-(5-(trifluoromethyl)-1,2,4-oxadiazol-3-yl)-1,3-dihydro-2H-isoindol-2-yl)cyclohexyl)propanamide] in this work.
An inhibition at 1 µM (HDAC6 enzyme) of 99%, an inhibition at 1 µM (HDAC9 enzyme) of 81% and an inhibition at 1 µM (HDAC1 enzyme) of 13% were found for `O=C(c1ccccc1)N1CCC(N2Cc3ncc(-c4noc(C(F)(F)F)n4)cc3C2=O)CC1` [Example 67, 6-(1-benzoylpiperidin-4-yl)-3-(5-(trifluoromethyl)-1,2,4-oxadiazol-3-yl)-6,7-dihydro-5H-pyrrolo[3,4-b]pyridin-5-one] in this work.
An inhibition at 1 µM (HDAC6 enzyme) of 78%, an inhibition at 1 µM (HDAC9 enzyme) of 88% and an inhibition at 1 µM (HDAC1 enzyme) of 17% were found for `O=C1c2ccc(-c3noc(C(F)(F)F)n3)cc2CN1[C@H]1CCNC[C@H]1c1ccccc1` (relative stereo) [Example 79, cis-2-(3-phenylpiperidin-4-yl)-5-(5-(trifluoromethyl)-1,2,4-oxadiazol-3-yl)isoindolin-1-one] in this work.
For `O=C(N[C@H]1CCOC[C@H]1N1Cc2ccc(-c3noc(C(F)(F)F)n3)cc2C1=O)C1CC1(F)F` (single isomer, unassigned) [Example 213, (1R) or (1S)-2,2-difluoro-N-((3S,4S)-3-(1-oxo-6-(5-(trifluoromethyl)-1,2,4-oxadiazol-3-yl)-1,3-dihydro-2H-isoindol-2-yl)tetrahydro-2H-pyran-4-yl)cyclopropanecarboxamide], the inhibition at 1 µM (HDAC6 enzyme) was 96%, the inhibition at 1 µM (HDAC9 enzyme) was 77% and the “HDAC1 inhibitory rate (%) (1 μM)” value (HDAC1 enzyme; 1 µM) was 31%.
An inhibition at 1 µM (HDAC6 enzyme) of 48%, an inhibition at 1 µM (HDAC9 enzyme) of 51% and an inhibition at 1 µM (HDAC1 enzyme) of 13% were found for `O=C(N[C@H]1CCOC[C@@H]1N1Cc2ccc(-c3noc(C(F)(F)F)n3)cc2C1=O)[C@@H]1CCOC1` [Example 209, (3R)-N-((3R,4S)-3-(1-oxo-6-(5-(trifluoromethyl)-1,2,4-oxadiazol-3-yl)-1,3-dihydro-2H-isoindol-2-yl)tetrahydro-2H-pyran-4-yl)tetrahydrofuran-3-carboxamide] in this work.
